Measured values: publication PMC11206759, “Synthesis, Docking, and DFT Studies on Novel Schiff Base Sulfonamide Analogues as Selective COX-1 Inhibitors with Anti-Platelet Aggregation Activity” (Pharmaceuticals, 2024)
Where two headings read alike, the source gives them in different places.

Tests used:
human recombinant COX-1 = assay: Cyclooxygenase inhibition assay (EIA kit), COX-1; format: biochemical; settings: COX-1 over COX-2
human recombinant COX-2 = molecular target: T1, human recombinant COX-2 (Homo sapiens, UniProt P35354); assay: Cyclooxygenase inhibition assay (EIA kit), COX-2; format: biochemical; settings: human recombinant COX-2, EIA kit
T1 construct: purchased Cayman Chemical 560131
T1 sequence (P35354 18-604): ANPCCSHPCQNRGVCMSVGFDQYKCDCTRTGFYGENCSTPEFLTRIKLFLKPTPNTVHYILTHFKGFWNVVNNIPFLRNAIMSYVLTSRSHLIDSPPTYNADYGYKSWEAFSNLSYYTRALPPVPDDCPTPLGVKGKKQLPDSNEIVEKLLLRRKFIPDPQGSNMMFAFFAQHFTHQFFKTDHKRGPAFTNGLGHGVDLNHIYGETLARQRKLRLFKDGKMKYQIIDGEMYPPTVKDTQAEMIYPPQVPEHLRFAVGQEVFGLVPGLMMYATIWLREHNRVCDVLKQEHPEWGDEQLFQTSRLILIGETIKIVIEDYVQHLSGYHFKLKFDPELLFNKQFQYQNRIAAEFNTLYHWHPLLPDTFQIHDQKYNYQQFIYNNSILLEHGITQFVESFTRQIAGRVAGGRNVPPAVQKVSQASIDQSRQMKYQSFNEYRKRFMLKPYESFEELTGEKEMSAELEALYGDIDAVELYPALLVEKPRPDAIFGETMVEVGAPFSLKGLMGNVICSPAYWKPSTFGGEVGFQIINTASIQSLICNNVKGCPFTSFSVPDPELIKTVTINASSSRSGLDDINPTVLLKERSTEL

[1] = test system: platelet aggregation induced by ADP; assay: Anti-platelet aggregation assay, ADP-induced; format: cell-based; settings: for IC50 / ADP Inhibition Rate (%) ± SD: platelet aggregation induced by 10 μM ADP; for IC50: 4 working concentrations; for ADP Inhibition Rate (%) ± SD: mean ± SD of three values
Description: (§1) Furthermore, the target compounds 10–13 were capable of inhibiting the platelet aggregation induced by 10 μM ADP and 0.33 U/mL collagen.
(§2) The anti-platelet aggregation assays were performed according to the method reported by XIE et al. (Supplementary Materials).

[2] = test system: platelet aggregation induced by collagen; assay: Anti-platelet aggregation assay, collagen-induced; format: cell-based; settings: for IC50 / Collagen Inhibition Rate (%) ± SD: platelet aggregation induced by 0.33 U/mL collagen; for IC50: 4 working concentrations; for Collagen Inhibition Rate (%) ± SD: mean ± SD of three values
Description: as §1, §2

COX-2 = settings: cited from earlier work
COX-1 = settings: cited from earlier work; for selectivity index: COX-1 selectivity
[3] = previous examples of Figure 1, read-out: IC50 COX-1

With `O=S(=O)(Nc1ncccn1)c1ccc(/N=C/c2ccco2)cc1` [Compound 10, (E)-4-(Furan-2-ylmethyleneamino)-N-(pyrimidin-2-yl)benzenesulfonamide] the “COX1 Selectivity Index” value (human recombinant COX-1) was 5.86, the IC50 (human recombinant COX-2) was 11.3 µM and the IC50 [1] was 370 nM. For the same compound, the “ADP Inhibition Rate (%) ± SD” value [1] was 78.36 ± 1.36%, the IC50 [2] was 620 nM and the “Collagen Inhibition Rate (%) ± SD” value [2] was 89.36 ± 1.23%.

For `NS(=O)(=O)c1ccc(-c2nc(Cl)cc(NCc3cccs3)n2)cc1` [VI], the SI (COX-2; COX-2 selectivity, Figure 1) is listed as > 81,300 and the IC50 (COX-2; previous examples of Figure 1) is listed as 1.2 nM.

In the case of `O=S(=O)(Nc1ncccn1)c1ccc(/N=C/c2ccccc2O)cc1` [Compound 11, (E)-4-(2-Hydroxybenzylideneamino)-N-(pyrimidin-2-yl)benzenesulfonamide], the “COX1 Selectivity Index” value (human recombinant COX-1) is reported as 3.16, the IC50 (human recombinant COX-2) is reported as 15.2 µM and the IC50 [1] is reported as 250 nM. For the same compound, the “ADP Inhibition Rate (%) ± SD” value [1] was 84.36 ± 1.64%, the IC50 [2] was 1030 nM and the “Collagen Inhibition Rate (%) ± SD” value [2] was 76.35 ± 1.34%.

In the case of `COc1ccc(-c2nc3ccccc3nc2-c2ccc(S(C)(=O)=O)cc2)cc1` [III], the IC50 (COX-1; [3]) is given as over 30 µM and the IC50 (COX-2; previous examples of Figure 1) is given as 400 nM.

In the case of `CC(=O)Oc1ccccc1C(=O)O` [Aspirin], the IC50 [1] is reported as 490 nM, the “ADP Inhibition Rate (%) ± SD” value [1] is reported as 92.36 ± 1.5% and the IC50 [2] is reported as 510 nM. The “Collagen Inhibition Rate (%) ± SD” value [2] was 64.3 ± 1.38%.

For `O=S(=O)(Nc1cnc2ccccc2n1)c1ccc(/N=C/c2ccco2)cc1` [Compound 12, (E)-4-(Furan-2-ylmethyleneamino)-N-(quinoxalin-2-yl)benzenesulfonamide], the “COX1 Selectivity Index” value (human recombinant COX-1) was 18.69, the IC50 (human recombinant COX-2) was 13.3 µM and the “reactivity compared to aspirin, ADP” value ([1]; fold versus aspirin) was 4.45 folds. The IC50 [1] was 110 nM, the “ADP Inhibition Rate (%) ± SD” value [1] was 98.1 ± 1.68% and the “activity compared to aspirin, collagen” value ([2]; fold versus aspirin) was 4.25 folds. For the same compound, the IC50 [2] was 120 nM and the “Collagen Inhibition Rate (%) ± SD” value [2] was 95.9 ± 1.39%.

With `O=S(=O)(Nc1cnc2ccccc2n1)c1ccc(/N=C/c2ccccc2O)cc1` [Compound 13, (E)-4-(2-Hydroxybenzylideneamino)-N-(quinoxalin-2-yl)benzenesulfonamide] the “COX1 Selectivity Index” value (human recombinant COX-1) was 2.87, the IC50 (human recombinant COX-2) was 9.26 µM and the “ADP Inhibition Rate (%) ± SD” value [1] was 46.32 ± 1.32%. The “Collagen Inhibition Rate (%) ± SD” value [2] was 45.36 ± 1.56%.

In the case of `CS(=O)(=O)c1ccc(-c2nc(NCc3ccc(F)cc3)cc(C(F)(F)F)n2)cc1` [IX], the COX-1 activity (COX-1; previous examples of Figure 1) is given as “not active” and the IC50 (COX-2; previous examples of Figure 1) is given as 7 nM.

For `Oc1ccc(/C=C/c2cc(O)cc(O)c2)cc1` [Compound II], the selectivity index (COX-1) is given as “around 200 folds” and the IC50 (COX-1; read-out: IC50 COX-1) is given as 15 µM.

For `Nc1ccc(S(=O)(=O)Nc2ccc(Cl)cc2)cc1` [Compound I], the selectivity index (COX-1) is given as “approximately 100 folds” and the IC50 (COX-1; read-out: IC50 COX-1) is given as 12 µM.

In the case of `Nc1onc(-c2ccc(Cl)o2)c1-c1ccccc1` [X], the IC50 (COX-1; read-out: IC50 COX-1) is listed as 1.1 µM and the IC50 (COX-2; Figure 1) is listed as over 50000 nM.

For `COc1ccc(-c2ncc(C)nc2-c2ccc(S(N)(=O)=O)cc2)cc1` [IV], the IC50 (COX-1; [3]) is given as 97 µM and the IC50 (COX-2; previous examples of Figure 1) is given as 460 nM.

For `Cc1cnc2c(-c3ccc(F)cc3)c(-c3ccc(S(C)(=O)=O)cc3)nn2c1C` [VIII], the IC50 (COX-1; read-out: IC50 COX-1) is given as 13 µM and the IC50 (COX-2) is given as 600 nM.

For `NS(=O)(=O)c1ccc(-c2nccnc2-c2ccc(F)cc2)cc1` [V], the IC50 (COX-1; [3]) is given as over 300 µM and the IC50 (COX-2; previous examples of Figure 1) is given as 1070 nM.

In the case of `COc1ccc(-n2cc(-c3ccco3)c(C(F)(F)F)n2)cc1` [XI], the IC50 (COX-1; read-out: IC50 COX-1) is listed as 3.4 µM and the IC50 (COX-2; Figure 1) is listed as over 50000 nM.
